Measured values from patent publication US11208386B2, “Inhibitors of protein arginine deiminases (PADs) and methods of preparation and use thereof” (University of Massachusetts, priority 2016, dated 2021).

How the values were obtained:
Format in all cases: biochemical
PAD3 = target: T1, PAD3 (Homo sapiens, UniProt Q9ULW8); experiment: Inactivation kinetics, PAD3; conditions: for kinact/KI: a: single kobs determined; for Fold PAD3 Selectivity: kinact/KI relative to least inhibited isozyme (1.0)
T1 construct: made in house
T1 sequence (Q9ULW8 1-664): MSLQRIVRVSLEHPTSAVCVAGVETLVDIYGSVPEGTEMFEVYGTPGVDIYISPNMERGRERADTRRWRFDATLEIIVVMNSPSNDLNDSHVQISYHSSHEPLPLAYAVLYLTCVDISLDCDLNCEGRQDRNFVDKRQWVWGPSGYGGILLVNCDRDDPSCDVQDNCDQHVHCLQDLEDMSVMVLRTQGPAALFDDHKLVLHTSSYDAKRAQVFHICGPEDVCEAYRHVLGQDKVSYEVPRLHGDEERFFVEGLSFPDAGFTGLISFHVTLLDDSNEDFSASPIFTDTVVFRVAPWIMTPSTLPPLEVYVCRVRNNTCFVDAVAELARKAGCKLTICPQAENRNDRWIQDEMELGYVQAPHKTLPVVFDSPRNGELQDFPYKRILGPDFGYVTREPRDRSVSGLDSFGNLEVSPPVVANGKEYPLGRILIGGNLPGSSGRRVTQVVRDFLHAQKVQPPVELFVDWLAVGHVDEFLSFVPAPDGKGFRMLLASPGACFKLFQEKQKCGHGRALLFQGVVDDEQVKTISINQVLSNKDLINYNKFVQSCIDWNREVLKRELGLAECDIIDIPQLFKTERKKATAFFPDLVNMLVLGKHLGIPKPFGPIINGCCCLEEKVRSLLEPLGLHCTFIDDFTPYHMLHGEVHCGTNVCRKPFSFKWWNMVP
Experimental: (§1) Inactivation kinetic parameters were determined by incubating PAD1, 2, or 4 (2.0 μM) or PAD3 (5.0 μM) in a pre-warmed (10 min; 37° C.) inactivation mixture (50 mM HEPES, 10 mM CaCl2, and 2 mM DTT, pH 7.6, with a final volume of 60 μL) containing various concentrations of inhibitor. Aliquots were removed at various time points and added to a pre-warmed (10 min, 37° C.) reaction mixture (50 mM HEPES, 50 mM NaCl, 10 mM CaC2, 2 mM DTT, and 10 mM BAEE or 10 mM BAA in the case of PAD3; pH 7.6). After 15 min, reactions were quenched in liquid nitrogen and citrulline production quantified using the COLDER assay. […] In Vitro Labeling of PADs with “Clickable” Probes BB-F-Yne (5u), BB-Cl-Yne (5v) and BIFYne (5w)

PAD4 = target: T2, PAD4 (Homo sapiens, UniProt Q9UM07); experiment: Inactivation kinetics, PAD4; conditions: for kinact/KI: a: single kobs determined, b: from a linear fit; for Fold PAD4 Selectivity: kinact/KI relative to least inhibited isozyme (1.0)
T2 construct: made in house
T2 sequence (Q9UM07 whole entry): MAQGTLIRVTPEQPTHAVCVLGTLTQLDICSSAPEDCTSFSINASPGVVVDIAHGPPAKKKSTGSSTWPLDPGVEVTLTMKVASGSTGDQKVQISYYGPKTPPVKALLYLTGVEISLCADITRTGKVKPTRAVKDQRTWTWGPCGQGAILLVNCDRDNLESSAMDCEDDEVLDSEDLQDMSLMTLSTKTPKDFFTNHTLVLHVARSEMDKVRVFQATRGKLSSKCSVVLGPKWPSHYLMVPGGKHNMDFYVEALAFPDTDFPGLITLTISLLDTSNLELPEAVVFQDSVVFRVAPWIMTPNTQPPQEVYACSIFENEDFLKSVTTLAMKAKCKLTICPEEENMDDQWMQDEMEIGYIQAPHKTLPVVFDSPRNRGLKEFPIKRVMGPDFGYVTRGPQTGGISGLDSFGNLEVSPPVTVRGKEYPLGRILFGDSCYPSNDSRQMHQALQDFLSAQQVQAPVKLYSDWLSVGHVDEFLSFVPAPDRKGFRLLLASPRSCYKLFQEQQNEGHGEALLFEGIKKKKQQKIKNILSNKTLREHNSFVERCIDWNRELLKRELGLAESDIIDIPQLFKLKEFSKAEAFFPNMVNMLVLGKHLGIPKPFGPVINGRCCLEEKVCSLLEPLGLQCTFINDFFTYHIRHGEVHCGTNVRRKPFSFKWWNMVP
Experimental: as §1

PAD1 = target: T3, PAD1 (Homo sapiens, UniProt Q9ULC6); experiment: Inactivation kinetics, PAD1; conditions: for kinact/KI: a: single kobs determined, b: from a linear fit; for Fold PAD1 Selectivity: kinact/KI relative to least inhibited isozyme (1.0)
T3 construct: made in house
T3 sequence (Q9ULC6 1-663): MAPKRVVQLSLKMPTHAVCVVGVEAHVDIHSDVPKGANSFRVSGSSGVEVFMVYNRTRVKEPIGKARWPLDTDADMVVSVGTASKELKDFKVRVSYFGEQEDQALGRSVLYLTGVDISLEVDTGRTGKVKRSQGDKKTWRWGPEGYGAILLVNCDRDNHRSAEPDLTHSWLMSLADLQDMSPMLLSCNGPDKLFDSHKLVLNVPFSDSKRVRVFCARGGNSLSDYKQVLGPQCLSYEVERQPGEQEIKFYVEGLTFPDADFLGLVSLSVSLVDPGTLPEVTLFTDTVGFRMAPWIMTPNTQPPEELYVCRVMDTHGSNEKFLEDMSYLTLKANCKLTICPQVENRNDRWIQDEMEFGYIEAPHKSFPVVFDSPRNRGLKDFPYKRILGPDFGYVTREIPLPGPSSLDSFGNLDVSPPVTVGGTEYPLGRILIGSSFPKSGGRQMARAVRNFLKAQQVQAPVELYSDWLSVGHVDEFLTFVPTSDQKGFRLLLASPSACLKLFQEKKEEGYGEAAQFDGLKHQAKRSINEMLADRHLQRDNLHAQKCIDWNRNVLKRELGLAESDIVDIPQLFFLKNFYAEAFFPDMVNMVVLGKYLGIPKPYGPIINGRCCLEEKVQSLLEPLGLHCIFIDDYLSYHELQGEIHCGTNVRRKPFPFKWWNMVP
Experimental: as §1

PAD2 = target: T4, PAD2 (Homo sapiens, UniProt Q9Y2J8); experiment: Inactivation kinetics, PAD2; conditions: for kinact/KI: a: single kobs determined, b: from a linear fit, other footnotes: from kinact and KI; for Fold PAD2 Selectivity: kinact/KI relative to least inhibited isozyme (1.0)
T4 construct: made in house
T4 sequence (Q9Y2J8 whole entry): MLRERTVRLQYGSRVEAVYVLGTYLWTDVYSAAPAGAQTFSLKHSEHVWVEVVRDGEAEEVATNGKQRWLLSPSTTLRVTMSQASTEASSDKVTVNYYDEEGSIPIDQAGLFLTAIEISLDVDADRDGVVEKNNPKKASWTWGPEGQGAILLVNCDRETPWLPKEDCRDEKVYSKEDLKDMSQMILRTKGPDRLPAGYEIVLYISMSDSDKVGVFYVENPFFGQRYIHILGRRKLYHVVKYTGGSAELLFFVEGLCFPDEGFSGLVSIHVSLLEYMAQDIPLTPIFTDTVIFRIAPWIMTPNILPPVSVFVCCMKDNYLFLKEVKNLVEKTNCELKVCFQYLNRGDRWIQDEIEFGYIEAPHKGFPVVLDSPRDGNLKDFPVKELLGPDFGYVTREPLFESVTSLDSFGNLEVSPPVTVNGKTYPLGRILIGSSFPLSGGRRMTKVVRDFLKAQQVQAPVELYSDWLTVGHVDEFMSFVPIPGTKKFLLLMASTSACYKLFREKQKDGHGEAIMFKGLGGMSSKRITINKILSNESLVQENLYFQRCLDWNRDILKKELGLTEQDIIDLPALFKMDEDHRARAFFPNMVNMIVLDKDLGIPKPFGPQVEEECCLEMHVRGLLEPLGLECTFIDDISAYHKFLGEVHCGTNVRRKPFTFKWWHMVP
Experimental: as §1

Compound | kinact/KI (PAD3) | Fold PAD3 Selectivity (PAD3) | kinact/KI (PAD4) | Fold PAD4 Selectivity (PAD4) | kinact/KI (PAD1) | Fold PAD1 Selectivity (PAD1) | kinact/KI (PAD2) | Fold PAD2 Selectivity (PAD2) | Ki (PAD2; PAD2, table footnote) | kinact (PAD2; PAD2, table footnote)
COc1ccc2[nH]c([C@H](CCCNC(=N)CCl)NC(=O)c3cccc4c3C(=O)NC4)nc2c1 [Compound 7t, N1-(3-oxoisoindoline)benzoyl-N5-(2-chloro-1-iminoethyl)-1-(5-methoxy-1H-benzo[d]imidazol-2-yl)-L-ornithine] | 291 M⁻¹ s⁻¹ | 1.0 fold | 630 M⁻¹ s⁻¹ | 2.2 fold | 2130 M⁻¹ s⁻¹ | 7.3 fold | 1000 M⁻¹ s⁻¹ | 3.5 fold | – | –
N=C(CF)NCCC[C@H](NC(=O)c1cccc2c1C(=O)NC2)c1nc2ccccc2[nH]1 [Compound 7a, N1-(3-oxoisoindoline)benzol-N5-(2-fluoro-1-iminoethyl)-1-(1H-benzo[d]imidazol-2-yl)-L-ornithine] | 53.3 M⁻¹ s⁻¹ | 1.0 fold | 552 M⁻¹ s⁻¹ | 10 fold | 1290 M⁻¹ s⁻¹ | 24 fold | 177 M⁻¹ s⁻¹ | 3.3 fold | 210 µM | 0.0373 s⁻¹
CCn1c([C@H](CCCNC(=N)CCl)NC(=O)c2cccc3c2C(=O)NC3)nc2cc(OC)ccc21 [Compound 7v, N1-(3-oxoisoindoline)benzol-N5-(2-chloro-1-iminoethyl)-1-(5-methoxy-1-ethyl-benzo[d]imidazol-2-yl)-L-ornithine] | 214 M⁻¹ s⁻¹ | 4.4 fold | 48.8 M⁻¹ s⁻¹ | 1.0 fold | 1010 M⁻¹ s⁻¹ | 21 fold | 780 M⁻¹ s⁻¹ | 16 fold | – | –
CC(C)n1c([C@H](CCCNC(=N)CCl)NC(=O)c2cccc3c2C(=O)NC3)nc2ccccc21 [Compound 7h, N1-(3-oxoisoindoline)benzol-N5-(2-chloro-1-iminoethyl)-1-(1-isopropyl-benzo[d]imidazol-2-yl)-L-ornithine] | 112 M⁻¹ s⁻¹ | 3.2 fold | 35 M⁻¹ s⁻¹ | 1.0 fold | 960 M⁻¹ s⁻¹ | 27 fold | 282 M⁻¹ s⁻¹ | 8.0 fold | – | –
N=C(CCl)NCCC[C@H](NC(=O)c1ccc2ccccc2c1)c1nc2ccccc2[nH]1 [Compound 5d] | 165 M⁻¹ s⁻¹ | 3.5 fold | 167 M⁻¹ s⁻¹ | 3.6 fold | 46.7 M⁻¹ s⁻¹ | 1.0 fold | 71.2 M⁻¹ s⁻¹ | 1.5 fold | – | –
CCN1Cc2cccc(C(=O)N[C@@H](CCCNC(=N)CCl)c3nc4ccccc4n3CC)c2C1=O [Compound 8f, N1-(2-ethyl-3-oxoisoindoline)benzoyl-N5-(2-chloro-1-iminoethyl)-1-(1-ethyl-benzo[d]imidazol-2-yl)-L-ornithine] | 114 M⁻¹ s⁻¹ | 2.1 fold | 54.2 M⁻¹ s⁻¹ | 1.0 fold | 952 M⁻¹ s⁻¹ | 18 fold | 752 M⁻¹ s⁻¹ | 14 fold | – | –
Cn1c([C@H](CCCNC(=N)CCl)NC(=O)c2cccc3c2C(=O)NC3)nc2ccccc21 [Compound 7d, N1-(3-oxoisoindoline)benzol-N5-(2-chloro-1-iminoethyl)-1-(1-methyl-benzo[d]imidazol-2-yl)-L-ornithine] | 808 M⁻¹ s⁻¹ | 2.0 fold | 398 M⁻¹ s⁻¹ | 1.0 fold | 2430 M⁻¹ s⁻¹ | 61 fold | 1220 M⁻¹ s⁻¹ | 3.1 fold | – | –
C#Cc1ccc(-c2ccc(C(=O)N[C@@H](CCCNC(=N)CCl)c3nc4ccccc4[nH]3)cc2)cc1 [Compound 5v, N1-4′-ethynyl-[1,1′-Phenyl]benzol-N5-(2-chloro-1-iminoethyl)-1-(1H-benzo[d]imidazol-2-yl)-L-ornithine] | 6.25 M⁻¹ s⁻¹ | 1.0 fold | 21.7 M⁻¹ s⁻¹ | 3.5 fold | 6.92 M⁻¹ s⁻¹ | 1.1 fold | 14.6 M⁻¹ s⁻¹ | 2.3 fold | – | –
CC(C)n1c([C@H](CCCNC(=N)CCl)NC(=O)c2ccccc2C(=O)OC(C)(C)C)nc2ccccc21 [Compound 9f, N1-(2-tert-butylcarboxy)benzoyl-N5-(2-chloro-1-iminoethyl)-1-(1-isopropyl-benzo[d]imidazol-2-yl)-L-omithine] | 80 M⁻¹ s⁻¹ | 7.1 fold | 11.3 M⁻¹ s⁻¹ | 1.0 fold | 56 M⁻¹ s⁻¹ | 4.9 fold | 119 M⁻¹ s⁻¹ | 11 fold | – | –
CCn1c([C@H](CCCNC(=N)CF)NC(=O)c2ccccc2C(=O)O)nc2ccccc21 [Compound 6e, N1-(2-Carboxyl)benzoyl-N5-(2-fluoro-1-iminoethyl)-1-(1-ethyl-benzo[d]imidazol-2-yl)-L-ornithine] | 29.2 M⁻¹ s⁻¹ | 1.7 fold | 16.8 M⁻¹ s⁻¹ | 1.0 fold | 650 M⁻¹ s⁻¹ | 39 fold | 527 M⁻¹ s⁻¹ | 31 fold | – | –
CC(C)n1c([C@H](CCCNC(=N)CCl)NC(=O)c2ccc(-c3ccccc3)cc2)nc2ccccc21 [Compound 5l, N1-[1,4′-Phenyl]benzoyl-N5-(2-chloro-1-iminoethyl)-1-(1-isopropyl-benzo[d]imidazol-2-yl)-L-ornithine] | 192 M⁻¹ s⁻¹ | 12 fold | 15.8 M⁻¹ s⁻¹ | 1.0 fold | 20.3 M⁻¹ s⁻¹ | 1.3 fold | 24.8 M⁻¹ s⁻¹ | 1.6 fold | – | –
CCn1c([C@H](CCCNC(=N)CCl)NC(=O)c2ccccc2C(=O)O)nc2ccccc21 [Compound 6f, N1-(2-Carboxyl)benzoyl-N5-(2-chloro-1-iminoethyl)-1-(1-ethyl-benzo[d]imidazol-2-yl)-L-ornithine] | 183 M⁻¹ s⁻¹ | 1.0 fold | 228 M⁻¹ s⁻¹ | 1.2 fold | 785 M⁻¹ s⁻¹ | 4.3 fold | 290 M⁻¹ s⁻¹ | 1.6 fold | – | –
CCn1c([C@H](CCCNC(=N)CF)NC(=O)c2ccccc2C(=O)OC(C)(C)C)nc2ccccc21 [Compound 9c, N1-(2-tert-butylcarboxy)benzoyl-N5-(2-fluoro-1-iminoethyl)-1-(1-ethyl-benzo[d]imidazol-2-yl)-L-ornithine] | 51.7 M⁻¹ s⁻¹ | 7.0 fold | 7.33 M⁻¹ s⁻¹ | 1.0 fold | 15.8 M⁻¹ s⁻¹ | 2.2 fold | 102 M⁻¹ s⁻¹ | 14 fold | – | –
